Measured values as given in patent publication US20250332178A1, “METHODS OF TREATING MYCOBACTERIAL INFECTIONS USING TETRACYCLINE COMPOUNDS” (priority 2018, published 2025).

What was measured:
M. immunogenum group = assay: MIC (CLSI broth dilution), RGM isolates; assay type: cell-based; conditions: M. immunogenum
M. mucogenium group = assay: MIC (CLSI broth dilution), RGM isolates; assay type: cell-based
Mycobacterium fortuitum = assay: MIC by broth microdilution in CAMHB, clinical isolates; assay type: cell-based; conditions: Mycolicibacterium fortuitum
Procedure: (§1) A total of 24 clinical isolates of Mycobacterium abscessus, 22 clinical isolates of Mycobacterium chelonae and 20 clinical isolates of Mycobacterium fortuitum were tested in the study. The study also used the antibiotics tigecycline, doxycycline and amikacin for comparison purposes. […] Amikacin was dissolved in DMSO prior to freezing at −20° C. For susceptibility testing, stock solutions of antibiotic compounds were serially diluted in 50 μL of cation adjusted Mueller-Hinton broth (CAMHB) in polystryrene 96-well round-bottom microtiter plates. To each well, 50 μL of the appropriate mycobacterial cell suspension was added to yield a final concentration of about 1×10^5 CFU/mL. The inoculum used for each isolate was measured by titration in saline with Tween 80 and plating on MH agar. The Mycobacterium abscessus and Mycobacterium fortuitum titer plates were incubated at 37° C. in ambient air for 3-4 days and 5-7 days, respectively. The Mycobacterium chelonae titer plates were incubated at 30° C. in ambient air for 3-5 days. Each isolate was tested at least in duplicate. The MIC was defined as the lowest concentration of antimicrobial agent yielding no visible turbidity.

Mycobacterium chelonae = assay: as above; assay type: cell-based
Procedure: as §1

Mycobacterium abscessus = assay: as above; assay type: cell-based; conditions: Mycobacteroides abscessus
Procedure: as §1

[1] = test system: rapid-growing mycobacteria (RGM) isolates; assay: MIC (CLSI broth dilution), all RGM isolates; assay type: cell-based, nontuberculous mycobacteria
M. chelonae = assay: MIC (CLSI broth dilution), RGM isolates; assay type: cell-based; conditions: Mycobacteroides chelonae
M. fortuitum group = assay: MIC (CLSI broth dilution), RGM isolates; assay type: cell-based; conditions: Mycolicibacterium fortuitum
M. smegmatis group = assay: MIC (CLSI broth dilution), RGM isolates; assay type: cell-based; conditions: Mycolicibacterium smegmatis
M. abscessus complex = assay: MIC (CLSI broth dilution), RGM isolates; assay type: cell-based; conditions: Mycobacteroides abscessus

CN(C)c1cc(NC(=O)CNC(C)(C)C)c(O)c2c1C[C@H]1C[C@H]3[C@H](N(C)C)C(O)=C(C(N)=O)C(=O)[C@@]3(O)C(O)=C1C2=O [Tigecycline, tigecycline]
0.03 µg/mL: MIC (M. mucogenium group; isolate 48, M. mucogenicum group, M. phocaicum) | MIC (Mycobacterium fortuitum; isolate No. 8, 54) | MIC (Mycobacterium fortuitum; isolate No. 10, 36) | MIC (M. fortuitum group; isolate 23, M. fortuitum group, M. fortuitum) | MIC (M. fortuitum group; isolate 27, M. fortuitum group, M. porcinum) | MIC (M. fortuitum group; isolate 28, M. fortuitum group, M. porcinum/M. boenickei) | MIC (M. fortuitum group; isolate 29, M. fortuitum group, M. porcinum/M. boenickei) | MIC (M. fortuitum group; isolate 30, M. fortuitum group, M. porcinum/M. boenickei) | MIC (M. fortuitum group; isolate 32, M. fortuitum group, M. senegalense) | MIC (M. fortuitum group; isolate 33, M. fortuitum group, M. senegalense) | MIC (M. fortuitum group; isolate 34, M. fortuitum group, M. senegalense) | MIC (M. smegmatis group; isolate 50, M. smegmatis group, M. wolinskyi)
2 µg/mL: MIC90 (Mycobacterium abscessus) | MIC (Mycobacterium abscessus; isolate No. 1, BB2) | MIC (Mycobacterium abscessus; isolate No. 2, BB4) | MIC (Mycobacterium abscessus; isolate No. 6, 5908) | MIC (Mycobacterium abscessus; isolate No. 7, BB7)
8 µg/mL: MIC (Mycobacterium abscessus; isolate No. 19, 5960)
≤ 0.015 µg/mL: MIC (M. fortuitum group; isolate 25, M. fortuitum group, M. fortuitum) | MIC (M. fortuitum group; isolate 26, M. fortuitum group, M. porcinum) | MIC (M. smegmatis group; isolate 49, M. smegmatis group, M. goodii)
0.12 µg/mL: MIC (M. immunogenum group; isolate 36, M. immunogenum group) | MIC (M. mucogenium group; isolate 39, M. mucogenicum group, M. mucogenicum) | MIC (M. mucogenium group; isolate 42, M. mucogenicum group, M. mucogenicum) | MIC (M. mucogenium group; isolate 43, M. mucogenicum group, M. phocaicum) | MIC (M. chelonae; isolate 18, M. chelonae) | MIC (M. chelonae; isolate 20, M. chelonae) | MIC (M. fortuitum group; isolate 24, M. fortuitum group, M. fortuitum) | MIC (M. abscessus complex; isolate 1, M. abscessus complex, erm gene type MAB30) | MIC (M. abscessus complex; isolate 2, M. abscessus complex, erm gene type MAB30) | MIC (M. abscessus complex; isolate 6, M. abscessus complex, erm gene type Type 1 abscessus) | MIC (M. abscessus complex; isolate 8, M. abscessus complex, erm gene type Type 1 abscessus) | MIC (M. abscessus complex; isolate 10, M. abscessus complex, erm gene type Type 1 abscessus) | MIC (M. abscessus complex; isolate 12, M. abscessus complex, erm gene type Type 6 abscessus) | MIC (M. abscessus complex; isolate 14, M. abscessus complex, erm gene type Type 6 abscessus) | MIC (M. abscessus complex; isolate 16, M. abscessus complex, erm gene type Type 7 abscessus) | MIC (M. abscessus complex; isolate 17, M. abscessus complex, erm gene type Type 8 abscessus)
0.06 µg/mL: MIC (M. mucogenium group; isolate 40, M. mucogenicum group, M. mucogenicum) | MIC (M. mucogenium group; isolate 41, M. mucogenicum group, M. mucogenicum) | MIC (M. mucogenium group; isolate 44, M. mucogenicum group, M. phocaicum) | MIC (M. mucogenium group; isolate 46, M. mucogenicum group, M. phocaicum) | MIC (Mycobacterium fortuitum; isolate No. 3, 2797) | MIC (Mycobacterium fortuitum; isolate No. 9, 38) | MIC50 (Mycobacterium chelonae) | MIC (Mycobacterium abscessus; isolate No. 4, BB3) | MIC (M. fortuitum group; isolate 31, M. fortuitum group, M. senegalense) | MIC (M. abscessus complex; isolate 11, M. abscessus complex, erm gene type Type 6 abscessus) | MIC (M. abscessus complex; isolate 15, M. abscessus complex, erm gene type Type 7 abscessus)
0.125 µg/mL: MIC (Mycobacterium fortuitum; isolate No. 5, 33) | MIC (Mycobacterium abscessus; isolate No. 5, BB6) | MIC50 [1]
1 µg/mL: MIC (Mycobacterium fortuitum; isolate No. 17, 3442) | MIC50 (Mycobacterium abscessus) | MIC (Mycobacterium abscessus; isolate No. 8, 6031) | MIC (Mycobacterium abscessus; isolate No. 16, BB5) | MIC (Mycobacterium abscessus; isolate No. 23, 6025)
0.5 µg/mL: MIC (M. immunogenum group; isolate 35, M. immunogenum group) | MIC (M. immunogenum group; isolate 37, M. immunogenum group) | MIC (M. immunogenum group; isolate 38, M. immunogenum group) | MIC (Mycobacterium fortuitum; isolate No. 14, 7484) | MIC (Mycobacterium fortuitum; isolate No. 20, 2491) | MIC (Mycobacterium abscessus; isolate No. 9, 5785) | MIC (Mycobacterium abscessus; isolate No. 11, 6111) | MIC (Mycobacterium abscessus; isolate No. 12, 6005) | MIC (M. chelonae; isolate 21, M. chelonae)
0.015 µg/mL: MIC (Mycobacterium fortuitum; isolate No. 2, 3499) | MIC (Mycobacterium fortuitum; isolate No. 6, 3489) | MIC (Mycobacterium fortuitum; isolate No. 7, 3491)
0.25 µg/mL: MIC (M. mucogenium group; isolate 45, M. mucogenicum group, M. phocaicum) | MIC (M. mucogenium group; isolate 47, M. mucogenicum group, M. phocaicum) | MIC50 (Mycobacterium fortuitum) | MIC90 (Mycobacterium fortuitum) | MIC (Mycobacterium fortuitum; isolate No. 1, 3349) | MIC (Mycobacterium fortuitum; isolate No. 4, 32) | MIC (Mycobacterium fortuitum; isolate No. 11, 3480) | MIC (Mycobacterium fortuitum; isolate No. 12, 3126) | MIC (Mycobacterium fortuitum; isolate No. 13, 3579) | MIC (Mycobacterium fortuitum; isolate No. 15, 3488) | MIC (Mycobacterium fortuitum; isolate No. 16, 3276) | MIC (Mycobacterium fortuitum; isolate No. 18, 3316) | MIC (Mycobacterium fortuitum; isolate No. 19, 3490) | MIC (Mycobacterium abscessus; isolate No. 3, 5922) | MIC90 [1] | MIC (M. chelonae; isolate 19, M. chelonae) | MIC (M. chelonae; isolate 22, M. chelonae) | MIC (M. abscessus complex; isolate 3, M. abscessus complex, erm gene type MAB30) | MIC (M. abscessus complex; isolate 4, M. abscessus complex, erm gene type massiliense) | MIC (M. abscessus complex; isolate 5, M. abscessus complex, erm gene type massiliense/subsp. abs hybrid) | MIC (M. abscessus complex; isolate 7, M. abscessus complex, erm gene type Type 1 abscessus) | MIC (M. abscessus complex; isolate 9, M. abscessus complex, erm gene type Type 1 abscessus) | MIC (M. abscessus complex; isolate 13, M. abscessus complex, erm gene type Type 6 abscessus)
